Entries after “also recorded” stand apart in the source; their conditions may differ.
Columns and labels:
sporadic ALS iMNs = experiment: Survival of sporadic ALS iMNs
Source text: (A) Survival of control (CTRL) and C9ORF72 ALS/FTD patient (C9-ALS) iMNs with a 12-hour pulse treatment of excess glutamate shown for each individual line separately. iMNs quantified from 3 independent iMN conversions per line. (B-D) Immunofluorescence analysis of total TDP-43 (B) and quantification of the ratio of nuclear to cytoplasmic TDP-43 in control, C9-ALS (C), or sporadic ALS (D) iMNs. MNs from 2 controls and 2 C9-ALS patients (C) or 4 sporadic ALS patients (D) were quantified. n=30 (controls), 30 (C9-ALS/FTD), or 36 (sporadic) iMNs per line per condition from 2 biologically independent iMN conversions of 2 control, 2 C9-ALS/FTD, or 4 sporadic ALS lines were quantified. Each gray circle represents a single iMN. Median±interquartile range. Unpaired Mann-Whitney test. Scale bars: 5 μm. Dotted lines outline the nucleus and cell body. (E) Survival of control and sporadic iMNs with glutamate treatment. iMNs quantified from 3 independent iMN conversions per line. For iMN survival experiments, significance was measured by 2-sided log-rank test using the entire survival time course.
(B) Survival of C9-ALS/FTD iMNs with DMSO or apilimod. (C) Survival of sporadic ALS induced motor neurons (iMNs) with DMSO or apilimod. (D) Survival of C9-ALS/FTD iMNs with a scrambled ASO or PIKFYVE ASOs, 100 iMNs per group. […] Unpaired t-test. iMN survival experiments analyzed by log-rank test. […]

C9ORF72 FTD iNs = experiment: Survival of C9ORF72 FTD iNs; assay type: cell-based, human; settings: Apilimod+GW4869 (exocytosis blocker)
Source text: (A) Survival of C9ORF72 iNs with DMSO or apilimod. Log-rank test, 100 iNs per group. […] Log-rank test, 100 iNs per group. […] Mean+/−s.e.m. Kruskal-Wallis Test.
(A, B) Survival of C9-FTD iNs treated with DMSO and Apilimod (A) or Apilimod+GW4869 (exocytosis blocker) (B). Log-rank test. 100 iNs per group. iNs quantified from 3 independent replicates per group.
Mutations in MAPT cause FTD with tau aggregates. To determine if iNs from FTD patients display neurodegenerative phenotypes, an established method to generate cortical neurons from iPSCs by forced expression of NGN2 was used. 3 FTD patient iPSC lines harboring a MAPTV337M mutation and their CRISPR-edited isogenic controls from a published cell bank were utilized. Neurons from MAPT-mutant iPSCs display increased phosphorylated and oligomeric tau, similar to post-mortem patient tissue (FIG. 18A). […] Thus, MAPT iNs display key features of FTD with tau pathology.
Thus, C9ORF72 iNs provide a robust model of FTD.
(§1) PIKFYVE inhibition rescues neurodegeneration through secretory autophagy.

C9-FTD iNs = experiment: Exosome secretion from iNs; assay type: cell-based, human; settings: apilimod+GW4869
Source text: (A) […] of exosomes from apilimod-treated C9-FTD iNs. (B) Western blot of TSG101, TDP-43, and Neurofilament heavy chain levels in the exosome fraction secreted from control or C9-FTD iNs upon apilimod treatment. (C,D) Quantification of the exosome marker TSG101 (C) or TDP-43 (D) in the exosome fraction of control and C9-FTD iNs treated with DMSO, apilimod, or apilimod+GW4869. Kruskal-Wallis test for B, C. N=3 biological replicates per condition, one line per genotype. (E) Number of poly(GR)-GFP+ exosomes secreted from iNs expressing exogenous poly(GR)-GFP upon DMSO or apilimod treatment. N=4 biological replicates. Exosomes were labeled with CFSE-red dye to enable detection by FACS. Unpaired t-test.
To test this, exosome release from iNs upon PIKFYVE inhibition was examined. […] Thus, PIKFYVE inhibition induces the secretion of TDP-43 and C9ORF72 DPRs from iNs
as §1

TARDBP mice = experiment: Motor deficits in TDP-43 (TARDBP) mice; assay type: in vivo
Source text: (A) Gait impairment, (B) Kyphosis, and (C) Tremor scoring in wild-type (WT) and TDP-43 homozygous mice treated with a negative control (NC) ASO or Pikfyve ASO at P0. Fore each assay, a score of 0 indicates no phenotype and 4 indicates the most severe phenotype.
To determine if ASO-mediated PIKFYVE suppression can rescue neurodegeneration in mouse models of ALS, two mouse models—a C9ORF72 model based on adeno-associated virus (AAV)-mediated overexpression of poly(GR) and a TDP-43 mouse mode were established. Both models develop neurodegeneration, motor impairment, and paralysis. […]

C9-ALS/FTD iMNs = experiment: Exosome secretion from iMNs; assay type: cell-based, human; settings: apilimod+GW4869
Source text: (A) Western blot of TSG101, TDP-43, and Neurofilament heavy chain levels in the exosome fraction secreted from control or C9-ALS/FTD iMNs upon apilimod treatment. […] Kruskal-Wallis test for B, C. N=3 biological replicates per condition, one line per genotype. (D) Number of poly(GR)-GFP+ exosomes secreted from iMNs expressing exogenous poly(GR)-GFP upon DMSO or apilimod treatment. N=4 biological replicates. Exosomes were labeled with CFSE-red dye to enable detection by FACS. Unpaired t-test.
Blocking PIKFYVE activity induces secretory autophagy. […] Thus, secretory autophagy maintains proteostasis and prevents neuronal death in TDP-43 mouse models. PIKFYVE inhibition blocks autophagosome-lysosome fusion by […] their ratio in endosomal, lysosomal and autophagosomal membranes. One might expect this to be detrimental to ALS iMNs, which can degenerate due to misfolded protein accumulation. However, inhibition of autophagosome-lysosome fusion using PIKFYVE inhibition or bafilomycin can activate secretory autophagy to jettison misfolded proteins from cells. […] To test this hypothesis, exosomal release in human iMNs upon PIKFYVE inhibition was examined. […] Thus, PIKFYVE inhibition induces the secretion of TDP-43 and C9ORF72 DPRs from iMNs.
Determining if PIKFYVE suppression rescues neurodegeneration through secretory autophagy. […] ASOs were designed targeting […]. It was confirmed that the ASOs suppressed RAB27A expression in iMNs.

[1] = target: T1, Neutral Sphingomyelinase 2 (Mus musculus, UniProt Q9JJY3); settings: mice overexpressing TDP-43; cited from earlier work
T1 construct: In mice overexpressing TDP-43, neurons secrete exosomes containing phospho-TDP-43; host or cells: neurons of TDP-43-overexpressing mice (endogenous enzyme, in vivo)
T1 sequence (Q9JJY3 1-655): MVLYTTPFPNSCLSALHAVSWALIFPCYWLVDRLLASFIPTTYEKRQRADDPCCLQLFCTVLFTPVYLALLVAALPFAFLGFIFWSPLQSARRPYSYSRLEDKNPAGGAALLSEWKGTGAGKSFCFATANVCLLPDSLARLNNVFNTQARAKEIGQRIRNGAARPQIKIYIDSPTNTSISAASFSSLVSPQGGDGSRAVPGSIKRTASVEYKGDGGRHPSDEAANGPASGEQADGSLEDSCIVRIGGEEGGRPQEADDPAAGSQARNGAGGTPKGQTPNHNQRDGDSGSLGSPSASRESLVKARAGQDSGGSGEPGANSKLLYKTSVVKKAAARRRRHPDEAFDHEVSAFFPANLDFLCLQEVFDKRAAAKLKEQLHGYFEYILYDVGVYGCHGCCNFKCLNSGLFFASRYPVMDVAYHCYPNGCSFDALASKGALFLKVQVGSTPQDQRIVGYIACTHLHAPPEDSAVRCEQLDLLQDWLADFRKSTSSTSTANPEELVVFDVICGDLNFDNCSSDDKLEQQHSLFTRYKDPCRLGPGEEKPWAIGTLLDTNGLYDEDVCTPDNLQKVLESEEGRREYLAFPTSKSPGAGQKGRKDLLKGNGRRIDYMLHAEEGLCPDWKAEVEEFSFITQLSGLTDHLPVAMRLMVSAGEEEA

[2] = test system: C9ORF72 dipeptide repeat proteins; experiment: DPR levels in C9ORF72-BAC mice; assay type: in vivo; settings: ASO injected into hippocampus, 7 days (12 days in FIG. 8-10)
Procedure: DRP aggregates (Poly(GR) red) accumulate in the cells (white outline) of C9-BAC mice.
(§2) (A) Mass spectrometry analysis of Optineurin (OPTN) levels in the cerebrospinal fluide (CSF) of mice 2 hours after direct intracerebroventral injection of a vehicle control or apilimod. n=3 mice per group. The ratio of Optineurin in the CSF of apilimod:vehicle-injected mice is shown. (B) Poly(GR)+ DPR punctae in wild-type or C9ORF72 mice treated with intracerebroventricular injection of apilimod for 48 hours. Mean+/−s.e.m. Data points are individual neurons taken across 3 mice per group. One-way ANOVA. […] Unpaired t-test. (D) Pikfyve qRT-PCR of whole brain. n=3 mice per group at postnatal day 7. Unpaired t-test. (E) Gait impairment scoring in wild-type (WT) and TDP-43 homozygous mice treated with a negative control (NC) ASO or Pikfyve ASO at postnatal day 1. Mean+/−s.e.m. Unpaired t-test at each time point between the negative control and Pikfyve ASO conditions for TDP-43 mice. A score of 0 indicates no phenotype and 4 indicates the most severe phenotype. (F) Vehicle or GW4869 were delivered by intraperitoneal injection every 48 h starting from day 6 in negative control and Pikfyve ASO-treated mice. Mean+/−s.e.m. One-way ANOVA at each time point between the four conditions. *p<0.05, **p<0.01, ***p<0.001, ****p<0.0001.
PIKFYVE inhibition rescues neurodegeneration in vivo. […] Since TARDBP overexpressing mice show motor deficits and neurodegeneration, we used TARDBP mice to test the efficacy of Pikfyve suppression.
(§3) Determining whether PIKfyve-targeting ASOs can reverse ALS disease progression in vivo. To determine if PIKfyve-targeting ASOs can reverse ALS disease processes in vivo, can PIKfyve ASOs lower levels of C9ORF72 dipeptide repeat proteins in mice. Dipeptide repeat proteins are generated from the C9ORF72 repeat expansion by repeat-associated non-AUG-dependent translation and are neurotoxic.
(§4) To determine if ASO-mediated Pikfyve suppression lowers C9ORF72 poly(GR) levels in mice, Pikfyve ASOs were injected into the hippocampus of adult C9ORF72-BAC mice, which harbor a C9ORF72 repeat expanded transgene and accumulate poly(GR)+ aggregates in hippocampal neurons.

Pikfyve [3] = experiment: Pikfyve qRT-PCR of whole brain after intracerebroventricular ASO; assay type: in vivo, mice; settings: intracerebroventricular ASO injection at P0/P1, brain at P7
Procedure: as §2
(A) Gait impairment, (B) Kyphosis, and (C) Tremor scoring in wild-type (WT) and TDP-43 homozygous mice treated with a negative control (NC) ASO or Pikfyve ASO at P0. […]

Pikfyve [4] = experiment: Pikfyve expression in hippocampus after ASO injection; assay type: in vivo, mice; settings: direct ASO injection into hippocampus, 7 days
Source text: as §3, §4

TDP-43 mutant mice = experiment: TDP-43 pathology, neurodegeneration and survival in TDP-43 mice; assay type: in vivo
Source text: (A, B) Images (A) and quantification (B) of phosphorylated TDP-43 (pTDP43)+ punctae in spinal motor neurons of day 21 wild-type or TDP-43 mutant mice treated with a negative control (NC ASO) or Pikfyve ASO. Each data point represents one mouse, mean+/−s.e.m., one-way ANOVA. In (A), each arrow marks a pTDP-43+ puncta. […] (C, D) Images (C) and quantification (D) of nuclear and cytoplasmic TDP-43 intensity in spinal motor neurons of day 21 wild-type or TDP-43 mutant mice treated with a negative control (NC ASO) or Pikfyve ASO. Each data point represents one mouse, mean+/−s.e.m., one-way ANOVA. […] (E, F) Images (E) and quantification (F) of the average number of Neurotrace (Nissl)+ spinal motor neurons per ventral horn per mouse. Each data point represents one mouse, mean, one-way ANOVA. In (E), orange dotted lines outline the ventral horn area quantified and white dotted lines outline the spinal cord. (G) Survival of TDP-43 mutant mice treated with a negative control (NC ASO) or Pikfyve ASO. Log-rank test. *p<0.05, **p<0.01, ***p<0.001, ****p<0.0001.

In the case of Nc1ccc(C(=O)Nc2cccc(-c3nc(N4CCOCC4)c4oc5ncccc5c4n3)c2)cn1 [YM201636], the “sporadic ALS iMN survival” value (sporadic ALS iMNs) is reported as “rescued C9ORF72 and sporadic ALS”.
In the case of O=C(/C=C/c1ccc(/C=C/C(=O)Nc2ccc(C3=NCCN3)cc2)cc1)Nc1ccc(C2=NCCN2)cc1 [GW4869], the “apilimod rescue of C9ORF72 iN survival in presence of GW4869” value (C9ORF72 FTD iNs) is reported as “blocked apilimod's ability to rescue”, the “apilimod-induced release of exosomes from C9ORF72 iNs with GW4869” value (C9-FTD iNs) is reported as “impaired apilimod-induced release of exosomes” and the “motor rescue by PIKFYVE ASOs in presence of GW4869” value (TARDBP mice; GW4869 intraperitoneal every 48 h from day 6) is reported as “blocked motor rescue by PIKFYVE ASOs”. The “apilimod-induced release of exosomes containing TSG101 and TDP-43 from ALS iMNs with GW4869” value (C9-ALS/FTD iMNs) was “blocked apilimod-induced release of exosomes”, the TDP-43 mouse survival [1] was “decreased TDP-43 mouse survival” and the neurodegeneration [1] was “accelerated neurodegeneration”. The “neuronal cytoplasmic TDP-43 aggregates” value [1] was “increased neuronal accumulation of cytoplasmic TDP-43 aggregates”.
For “GGTGCATGCTCGGAGGTCTC (chemistry not given here) [Pikfyve ASO, mouse Pikfyve ASO gapmer for in vivo experiments, 5-10-5 2′-MOE, phosphorothioate]”, the “DPR / poly(GR)+ aggregates in hippocampus of C9ORF72-BAC mice” value (from here on “DPR / poly(GR)+ aggregates”) [2] was “significantly reduced; also recorded: significantly less DRP aggregates”, the “DPR / poly(GR)+ aggregates” value ([2]; listed as PIKfyve ASO) was “significantly lowered” and the “DPR / poly(GR)+ aggregates” value ([2]; listed as Pikfyve-suppressing ASO) was “also lowered DPRs”. For the same compound, the “Pikfyve mRNA levels (whole brain qRT-PCR)” value (Pikfyve [3]) was “reduced Pikfyve mRNA levels”, the “Pikfyve mRNA levels (whole brain qRT-PCR)” value (Pikfyve [3]; listed as Pikfyve-targeting ASO) was “significantly decreased Pikfyve expression” and the “Pikfyve expression in hippocampus” value (Pikfyve [4]) was “significantly reduced”. For the same compound, the “Pikfyve expression in hippocampus” value (Pikfyve [4]; listed as PIKfyve ASO) was “significantly lowered”, the “motor deficits in TARDBP mice” value (TARDBP mice; intracerebroventricular injection of Pikfyve ASO) was “rescued motor deficits” and the “survival of TDP-43 mutant mice” value (TDP-43 mutant mice; NC ASO vs Pikfyve ASO) was “rescues”. For the same compound, the “neurodegeneration in TDP-43 mice” value (TDP-43 mutant mice; Nissl+ spinal motor neurons per ventral horn) was “rescues” and the “TDP-43 pathology in TDP-43 mice” value (TDP-43 mutant mice; spinal motor neurons, day 21, NC ASO vs Pikfyve ASO) was “rescues”.

Reference: patent US20230098111A1, “COMPOSITIONS AND METHODS TO TREAT NEUROLOGICAL DISEASES” (University of Southern California, priority 2020, published 2023)
